Measured values from patent US20160000912A1, “COMBINATION THERAPY OF A TYPE II ANTI-CD20 ANTIBODY WITH A PROTEASOME INHIBITOR” (Roche Glycart AG, priority 2007, published 2016).

What was measured:
[1] = tested on: SU-DHL-4 human Non-Hodgkin-Lymphoma (NHL) cells; assay: Tumor growth inhibition study in vivo, SU-DHL-4 xenografts; parameters: species or system SCID beige mice; details: 1 mg/kg i.p. once weekly
Experimental: Type II anti-CD20 antibody B-HH6-B-KV1 GE(=humanized B-Ly1, glycoengineered B-HH6-B-KV1, see WO 2005/044859 and WO 2007/031875) was provided as stock solution (c=9.4 mg/ml) from GlycArt, Schlieren, Switzerland. Antibody buffer included histidine, trehalose and polysorbate 20. Antibody solution was diluted appropriately in PBS from stock for prior injections.
Proteasome inhibitor bortezomib was purchased as clinical formulation from Janssen-Cilag GmbH, Neuss, Germany. Dilution was adjusted from reconstituted stock solution.
SU-DHL-4 human Non-Hodgkin-Lymphoma (NHL) cells (Chang, H., et al., Leuk Lymphoma. 8 (1992) 129-36) were kindly provided from DSMZ, Braunschweig. Tumor cell line was routinely cultured in RPMI medium (PAA, Laboratories, Austria) supplemented with 10% fetal bovine serum (PAA Laboratories, Austria) and 2 mM L-glutamine, at 37° C. in a water-saturated atmosphere at 5% CO2. Passage 5 was used for transplantation. […]
Animals were controlled daily for clinical symptoms and detection of adverse effects. For monitoring throughout the experiment body weight of animals was documented two times weekly and tumor volume was measured by caliper after staging. […]

[2] = biological target: T1, CD20 on Raji cells (ATCC-No. CCL-86) (Homo sapiens, UniProt P11836); assay: Ratio of the binding capacities to CD20 on Raji cells compared to rituximab (direct immunofluorescence, Cy5, FACSArray); details: Cy5-conjugated antibodies
T1 construct: generated by direct immunofluorescence using the Burkitt's lymphoma cell line Raji (ATCC-No. CCL-86); host or cells: Raji cells (Burkitt's lymphoma)
T1 sequence (P11836 1-297): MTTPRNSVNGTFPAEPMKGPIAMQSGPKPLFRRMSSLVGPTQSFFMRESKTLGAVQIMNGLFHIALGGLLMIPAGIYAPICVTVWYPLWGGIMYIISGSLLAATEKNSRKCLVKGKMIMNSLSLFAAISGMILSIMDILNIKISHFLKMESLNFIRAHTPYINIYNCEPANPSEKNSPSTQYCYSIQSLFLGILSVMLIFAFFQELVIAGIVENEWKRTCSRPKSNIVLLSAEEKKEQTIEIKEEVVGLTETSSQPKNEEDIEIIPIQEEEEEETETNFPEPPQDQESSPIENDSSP
Experimental: MFI is the mean fluorescent intensity. The “Cy5-labeling ratio” as used herein means the number of Cy5-label molecules per molecule antibody.
Raji cells (ATCC-No. CCL-86) were maintained in culture in RPMI-1640 medium (PanBiotech GmbH, Cat.-No. PO4-18500) containing 10% FCS (Gibco, Cat.-No.10500-064). […] 5*10^5 cells per sample were stained for 30 min at 4° C. Afterwards, cells were washed in culture medium. Propidium iodide (PI) staining was used to exclude dead cells.
Then the ratio of the binding capacities to CD20 on Raji cells (ATCC-No. CCL-86) is calculated according to the following formula: […]

CC(C)C[C@H](NC(=O)[C@H](Cc1ccccc1)NC(=O)c1cnccn1)B(O)O [bortezomib]
antitumor activity as single agent (in words) [1]: only slightly active

B-HH6-B-KV1: Type II anti-CD20 antibody (humanized B-Ly1 antibody) of Example 2; FIG. 2 legend calls it B-HH6-B-KV1 GE
binding capacity compared to rituximab (in words) [2]: reduces binding capacity compared to rituximab
